Experimental data published in US7662814B2, “4-aminothieno[2,3-d]pyrimidine-6-carbonitrile derivatives as PDE7 inhibitors” (Laboratorios Almirall, S.A., priority 2003, dated 2010).

For `COc1cc(Cc2nc(NCC(C)C)c3c(C)c(C#N)sc3n2)cc(OC)c1OC` [Example 135, 4-(Isobutylamino)-5-methyl-2-(3,4,5-trimethoxybenzyl)thieno[2,3-d]pyrimidine-6-carbonitrile], the melting point was 129 to 131 °C. `COc1cc(-c2nc(N(C)CCN(C)C)c3c(C)c(C#N)sc3n2)cc(OC)c1OC` [Example 107, 4-[[2-(Dimethylamino)ethyl](methyl)amino]-5-methyl-2-(3,4,5-trimethoxyphenyl) thieno[2,3-d]pyrimidine-6-carbonitrile] showed a melting point of 125 to 127 °C. Work on `COc1ccc(-c2nc(N3CCOCC3)c3c(C)c(C#N)sc3n2)cc1` [Example 22, 2-(4-Methoxyphenyl)-5-methyl-4-morpholin-4-ylthieno[2,3-d]pyrimidine-6-carbonitrile] yielded a melting point of 204 to 206 °C. Compound `Cc1c(C#N)sc2nc(-c3ccc4c(c3)OCO4)nc(N3CCOCC3)c12` [Example 37, 2-(1,3-Benzodioxol-5-yl)-5-methyl-4-morpholin-4-ylthieno[2,3-d]pyrimidine-6-carbonitrile] has a melting point of 197 to 198 °C. `COCCNc1nc(Cc2ccc(OC)c(OC)c2)nc2sc(C#N)c(C)c12` [Example 106, 2-(3,4-Dimethoxybenzyl)-4-[(2-methoxyethyl)amino]-5-methylthieno[2,3-d]pyrimidine-6-carbonitrile] showed a melting point of 94 to 97 °C. `CCCNc1nc(-c2ccc(OC)c(OC)c2)nc2sc(C#N)c(C)c12` [Example 47, 2-(3,4-Dimethoxyphenyl)-5-methyl-4-(propylamino)thieno[2,3-d]pyrimidine-6-carbonitrile] showed a melting point of 179 to 181 °C. `CCNc1nc(Cc2cc(OC)c(OC)c(OC)c2)nc2sc(C#N)c(C)c12` [Example 111, 4-(Ethylamino)-5-methyl-2-(3,4,5-trimethoxybenzyl)thieno[2,3-d]pyrimidine-6-carbonitrile] showed a melting point of 164 to 165 °C. With `COc1cc(-c2nc(N(C)CCN)c3c(C)c(C#N)sc3n2)cc(OC)c1OC` [Example 86, 4-[(2-Aminoethyl)(methyl)amino]-5-methyl-2-(3,4,5-trimethoxyphenyl)thieno[2,3-d]pyrimidine-6-carbonitrile] the melting point was over 290 °C. Work on `COc1cc(-c2nc(N(C)CCO)c3c(C)c(C#N)sc3n2)cc(OC)c1OC` [Example 52, 4-[(2-Hydroxy-ethyl)-methyl-amino]-5-methyl-2-(3,4,5-trimethoxy-phenyl)-thieno[2,3-d]pyrimidine-6-carbonitrile] yielded a melting point of 164 to 166 °C. `CCC(CC)Nc1nc(Cc2cc(OC)c(OC)c(OC)c2)nc2sc(C#N)c(C)c12` [Example 115, 4-[(1-Ethylpropyl)amino]-5-methyl-2-(3,4,5-trimethoxybenzyl)thieno[2,3-d]pyrimidine-6-carbonitrile] showed a melting point of 127 to 129 °C. Compound `COc1ccc(Cc2nc(N3CCOCC3)c3c(C)c(C#N)sc3n2)cc1OC` [Example 92, 2-(3,4-Dimethoxybenzyl)-5-methyl-4-morpholin-4-ylthieno[2,3-d]pyrimidine-6-carbonitrile] has a melting point of 67 to 70 °C. `Cc1c(C#N)sc2nc(-c3ccc(Cl)cc3)nc(N3CCOCC3)c12` [Example 23, 2-(4-Chlorophenyl)-5-methyl-4-morpholin-4-ylthieno[2,3-d]pyrimidine-6-carbonitrile] gave a melting point of 205 to 207 °C. In the case of `CNc1nc(Cc2ccc(OC)c(OC)c2)nc2sc(C#N)c(C)c12` [Example 94, 2-(3,4-Dimethoxybenzyl)-5-methyl-4-(methylamino)thieno[2,3-d]pyrimidine-6-carbonitrile], the melting point is reported as 161 to 163 °C. With `COc1cc(-c2nc(-n3nccn3)c3c(C)c(C#N)sc3n2)cc(OC)c1OC` [Example 90, 5-Methyl-4-(2H-1,2,3-triazol-2-yl)-2-(3,4,5-trimethoxyphenyl)thieno[2,3-d]pyrimidine-6-carbonitrile] the melting point was 208 to 210 °C. Work on `Cc1c(C#N)sc2nc(-c3ccc(C(F)(F)F)cc3)nc(N3CCN(C)CC3)c12` [Example 33, 5-Methyl-4-(4-methylpiperazin-1-yl)-2-[4-(trifluoromethyl)phenyl]thieno[2,3-d]pyrimidine-6-carbonitrile] yielded a melting point of 187 to 189 °C. In the case of `COc1cc(-c2nc(NC3CCCC3)c3c(C)c(C#N)sc3n2)cc(OC)c1OC` [Example 77, 4-(Cyclopentylamino)-5-methyl-2-(3,4,5-trimethoxyphenyl)thieno[2,3-d]pyrimidine-6-carbonitrile], the melting point is reported as 218 to 220 °C. `CCCCNc1nc(-c2cc(OC)c(OC)c(OC)c2)nc2sc(C#N)c(C)c12` [Example 69, 4-(Butylamino)-5-methyl-2-(3,4,5-trimethoxyphenyl)thieno[2,3-d]pyrimidine-6-carbonitrile] showed a melting point of 192 to 194 °C. Work on `Cc1c(C#N)sc2nc(Cc3ccccc3)nc(N3CCOCC3)c12` [Example 58, 2-Benzyl-5-methyl-4-morpholin-4-yl-thieno[2,3-d]pyrimidine-6-carbonitrile] yielded a melting point of 88 to 90 °C. Work on `C=CCN(C)c1nc(-c2ccc(OC)cc2)nc2sc(C#N)c(C)c12` [Example 29, 4-[Allyl(methyl)amino]-2-(4-methoxyphenyl)-5-methylthieno[2,3-d]pyrimidine-6-carbonitrile] yielded a melting point of 126 to 128 °C. `COc1cc(-c2nc(N3CCNC(C)C3)c3c(C)c(C#N)sc3n2)cc(OC)c1OC` (centres unmarked) [Example 83, 5-Methyl-4-(3-methylpiperazin-1-yl)-2-(3,4,5-trimethoxyphenyl)thieno[2,3-d]pyrimidine-6-carbonitrile] showed a melting point of 213 to 215 °C. `COc1ccc(-c2nc(N(C)C)c3c(C)c(C#N)sc3n2)cc1` [Example 21, 4-(Dimethylamino)-2-(4-methoxyphenyl)-5-methylthieno[2,3-d]pyrimidine-6-carbonitrile] showed a melting point of 123 to 125 °C. For `Cc1c(C#N)sc2nc(-c3ccc([N+](=O)[O-])cc3)nc(N3CCNCC3)c12` [Example 13, 5-Methyl-2-(4-nitrophenyl)-4-piperazin-1-ylthieno[2,3-d]pyrimidine-6-carbonitrile], the melting point was 250 °C. `COc1ccc(Cc2nc(N(C)CCO)c3c(C)c(C#N)sc3n2)cc1OC` [Example 105, 2-(3,4-Dimethoxybenzyl)-4-[(2-hydroxyethyl)(methyl)amino]-5-methylthieno[2,3-d]pyrimidine-6-carbonitrile] showed a melting point of 62 to 63 °C. Work on `COc1cc(-c2nc(-n3cccn3)c3c(C)c(C#N)sc3n2)cc(OC)c1OC` [Example 88, 5-Methyl-4-(1H-pyrazol-1-yl)-2-(3,4,5-trimethoxyphenyl)thieno[2,3-d]pyrimidine-6-carbonitrile] yielded a melting point of 209 to 214 °C. Compound `COc1ccc(-c2nc(N3CCCC3)c3c(C)c(C#N)sc3n2)cc1` [Example 11, 2-(4-Methoxyphenyl)-5-methyl-4-pyrrolidin-1-ylthieno[2,3-d]pyrimidine-6-carbonitrile] has a melting point of 176 to 178 °C. Work on `Cc1c(C#N)sc2nc(CCCc3ccccc3)nc(N3CCN(C)CC3)c12` [Example 130, 5-Methyl-4-(4-methylpiperazin-1-yl)-2-(3-phenylpropyl)thieno[2,3-d]pyrimidine-6-carbonitrile] yielded a melting point of 101 to 103 °C. `CCN1CCN(c2nc(-c3ccc(OC)cc3)nc3sc(C#N)c(C)c23)CC1` [Example 2, 4-(4-Ethylpiperazin-1-yl)-2-(4-methoxyphenyl)-5-methylthieno[2,3-d]pyrimidine-6-carbonitrile] gave a melting point of 173 to 175 °C. In the case of `CCC(CC)Nc1nc(-c2cc(OC)c(OC)c(OC)c2)nc2sc(C#N)c(C)c12` [Example 73, 4-[(1-Ethylpropyl)amino]-5-methyl-2-(3,4,5-trimethoxyphenyl)thieno[2,3-d]pyrimidine-6-carbonitrile], the melting point is reported as 226 to 228 °C. Compound `COc1cc(-c2nc(N3CCN(C(C)=O)CC3)c3c(C)c(C#N)sc3n2)cc(OC)c1OC` [Example 85, 4-(4-Acetylpiperazin-1-yl)-5-methyl-2-(3,4,5-trimethoxyphenyl)thieno[2,3-d]pyrimidine-6-carbonitrile] has a melting point of 211 to 213 °C. In the case of `COc1cc(-c2nc(NC(C)(C)C)c3c(C)c(C#N)sc3n2)cc(OC)c1OC` [Example 74, 4-(tert-Butylamino)-5-methyl-2-(3,4,5-trimethoxyphenyl)thieno[2,3-d]pyrimidine-6-carbonitrile], the melting point is reported as 195 to 197 °C. `CCN(CC)c1nc(-c2ccc(OC)c(OC)c2)nc2sc(C#N)c(C)c12` [Example 20, 4-(Diethylamino)-2-(3,4-dimethoxyphenyl)-5-methylthieno[2,3-d]pyrimidine-6-carbonitrile] showed a melting point of 159 to 161 °C. With `COc1cc(-c2nc(-n3cncn3)c3c(C)c(C#N)sc3n2)cc(OC)c1OC` [Example 91, 5-Methyl-4-(1H-1,2,4-triazol-1-yl)-2-(3,4,5-trimethoxyphenyl)thieno[2,3-d]pyrimidine-6-carbonitrile] the melting point was 236 to 240 °C. With `COc1cc(-c2nc(-n3ccnc3)c3c(C)c(C#N)sc3n2)cc(OC)c1OC` [Example 89, 4-(1H-Imidazol-1-yl)-5-methyl-2-(3,4,5-trimethoxyphenyl)thieno[2,3-d]pyrimidine-6-carbonitrile] the melting point was 238 to 240 °C. `CCN(C)c1nc(-c2cc(OC)cc(OC)c2)nc2sc(C#N)c(C)c12` [Example 55, 2-(3,5-Dimethoxy-phenyl)-4-(ethyl-methyl-amino)-5-methyl-thieno[2,3-d]pyrimidine-6-carbonitrile] showed a melting point of 145 to 148 °C. Work on `Cc1c(C#N)sc2nc(-c3ccc(Cl)cc3)nc(N3CCN(C)CC3)c12` [Example 15, 2-(4-Chlorophenyl)-5-methyl-4-(4-methylpiperazin-1-yl)thieno[2,3-d]pyrimidine-6-carbonitrile] yielded a melting point of 209 to 210 °C.
